Measurements: PMC12587545, “Noncytotoxic polymyxin derivatives enhance antibiotic action against multidrug-resistant Gram-negative bacteria” (Antimicrobial Agents and Chemotherapy, 2025)
Positions of bridges follow the written chain, without caps; N, C: chain ends. Non-standard residues stand in square brackets, D forms with d. Residues, ends and D or L forms follow the SMILES beside them. *: point of attachment. Octanoyl = CCCCCCCC(=O)*; Dab = NCC[C@H](N)C(=O)O; Dap = NC[C@H](N)C(=O)O

Columns and labels:
[1] = system: SK-N-SH; assay: Cell viability assay (PrestoBlue); type: cell-based; conditions: 24 h
Procedure: (§1) Kidney cell lines, HK-2 (CRL-2190) and RPTEC/TERT1 (CRL-4031), and neural cell lines, U-87 MG (HTB-14) and SK-N-SH (HTB-11), were obtained from American Type Culture Collection (ATCC). HK-2 cells were cultured in T75 flasks with keratinocyte serum-free medium supplemented with bovine pituitary extract, human epidermal growth factor, and 2.5% FBS. RPTEC/TERT1 cells were cultured in T75 flasks with Dulbecco’s modified Eagle’s medium:F12 supplemented with the ATCC (United States) human telomerase reverse transcriptase immortalized RPTEC growth kit, G418 (0.1 mg/mL final concentration), and 2% FBS. Both U-87 MG and SK-N-SH cells were cultured in minimal essential media supplemented with 10% FBS. The cells were incubated in a humidified atmosphere at 5% CO2 and at 37°C.
(§2) The cytotoxicity of the compounds toward the mammalian cell lines was assessed using the cell viability assay protocols as previously described ([29]). Designated wells in 96-well plates were seeded with HK-2 (5,000 cells), RPTEC/TERT1 (8,000 cells), U-87 MG (7,000 cells), or SK-N-SH (8,000 cells) in 50 µL. Blank wells received an identical volume of only media. […] Subsequently, PrestoBlue reagent (Invitrogen, United States) was added to the wells to a final concentration of 10% (vol/vol), and the plate was incubated for an additional 1 h. Fluorescence was measured with a SpectraMax M2 plate reader (Molecular Devices, United States), at excitation and emission wavelengths of 560 and 590 nm, respectively. Values from the blank wells were subtracted from the corresponding wells containing cells. The cell viability relative to the controls with vehicle was calculated and presented as mean ± standard deviation of at least two experiments with five replicates each. CC50 values were obtained using GraphPad Prism (version 10.4.1) by non-linear regression (four-parameter logistic fit).

[2] = system: U-87 MG; assay: Cell viability assay (PrestoBlue); type: cell-based; conditions: 24 h
Procedure: as §1, §2

[3] = system: K. pneumoniae
Procedure: (§3) The bacterial isolates were acquired from ATCC or the Canadian Ward Surveillance (CANWARD) study ([56]). CANWARD isolates were collected from infected patients admitted to participating medical centers across Canada.
(§4) The antibiotic or compound was serially diluted 2-fold in CAMHB on a 96-well plate and was incubated with equal volumes of bacterial inoculum overnight at 37°C. Wells containing only media were used as negative controls, and wells containing only bacteria were used as positive controls. Antibacterial activity was measured by the MIC, or the lowest concentration of agent required to inhibit visible bacterial growth. Turbidity was confirmed with a Molecular Devices (United States) EMax Plus microplate reader at a wavelength of 590 nm.

[4] = system: P. aeruginosa
Procedure: as §3, §4

[5] = system: HK-2; type: cell-based, human; conditions: 48 h
Procedure: as §1
The cytotoxicity of the compounds toward the mammalian cell lines was assessed using the cell viability assay protocols as previously described ([29]). Designated wells in 96-well plates were seeded with HK-2 (5,000 cells), RPTEC/TERT1 (8,000 cells), U-87 MG (7,000 cells), or SK-N-SH (8,000 cells) in 50 µL. Blank wells received an identical volume of only media. After incubating the cells for 24 h, all wells were treated with varying concentrations of the compound and incubated for 48 h. Subsequently, PrestoBlue reagent (Invitrogen, United States) was added to the wells to a final concentration of 10% (vol/vol), and the plate was incubated for an additional 1 h. Fluorescence was measured with a SpectraMax M2 plate reader (Molecular Devices, United States), at excitation and emission wavelengths of 560 and 590 nm, respectively. Values from the blank wells were subtracted from the corresponding wells containing cells. The cell viability relative to the controls with vehicle was calculated and presented as mean ± standard deviation of at least two experiments with five replicates each. CC50 values were obtained using GraphPad Prism (version 10.4.1) by non-linear regression (four-parameter logistic fit).

Q: Which results are given for `CCCCCCCC(=O)N[C@@H](CN)C(=O)N[C@H](C(=O)N[C@@H](CN)C(=O)N[C@H]1CCNC(=O)[C@H]([C@@H](C)O)NC(=O)[C@H](CN)NC(=O)[C@H](CN)NC(=O)[C@H](CC(C)C)NC(=O)[C@@H](Cc2ccccc2)NC(=O)[C@H](CN)NC1=O)[C@@H](C)O` [Compound 1] (Octanoyl-[Dap]T[Dap][Dab][Dap][dF]L[Dap][Dap]T; lactam 4-C)?
A: cell viability [1]: exceeding 100%; cell viability [2]: exceeding 100%; MIC [3]: >128 µg/mL; MIC [4]: >128 µg/mL; CC50 in HK-2 [5]: 238.7 µM
